Source: patent US20090325964A1, “Piperazine Metabotropic Glutamate Receptor 5 (MGLUR5) Negative Allosteric Modulators For Anxiety/Depression” (Wyeth, priority 2008, published 2009)
Read-outs that look alike come from different tables or passages of the source.

How the values were obtained:
mGluR5 = mGluR5 (Rattus norvegicus, UniProt P31424); experiment: IC50 column under 'Biological Activity' (assay not identified in the shown text; not the binding Ki)
rat mGluR5 receptor = target: T1, rat mGluR5 receptor (Rattus norvegicus, UniProt P31424); experiment: [3H]-MPEP displacement binding assay, HEK-293 cell membranes expressing rat mGluR5; conditions: [3H]-MPEP displacement, read-out: Median Ki
T1 construct: expressed in transfected cells; host or cells: HEK-293
In short: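 Membranes from HEK-293 cells expressing rat mGluR5 (12-25 μg protein), incubated 60 min at room temperature with 4 nM [3H]-MPEP in 50 mM Tris pH 7.5, then filtered. Nonspecific binding defined with 10 μM MPEP.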

mGluR5, sequence (P31424 21-1203): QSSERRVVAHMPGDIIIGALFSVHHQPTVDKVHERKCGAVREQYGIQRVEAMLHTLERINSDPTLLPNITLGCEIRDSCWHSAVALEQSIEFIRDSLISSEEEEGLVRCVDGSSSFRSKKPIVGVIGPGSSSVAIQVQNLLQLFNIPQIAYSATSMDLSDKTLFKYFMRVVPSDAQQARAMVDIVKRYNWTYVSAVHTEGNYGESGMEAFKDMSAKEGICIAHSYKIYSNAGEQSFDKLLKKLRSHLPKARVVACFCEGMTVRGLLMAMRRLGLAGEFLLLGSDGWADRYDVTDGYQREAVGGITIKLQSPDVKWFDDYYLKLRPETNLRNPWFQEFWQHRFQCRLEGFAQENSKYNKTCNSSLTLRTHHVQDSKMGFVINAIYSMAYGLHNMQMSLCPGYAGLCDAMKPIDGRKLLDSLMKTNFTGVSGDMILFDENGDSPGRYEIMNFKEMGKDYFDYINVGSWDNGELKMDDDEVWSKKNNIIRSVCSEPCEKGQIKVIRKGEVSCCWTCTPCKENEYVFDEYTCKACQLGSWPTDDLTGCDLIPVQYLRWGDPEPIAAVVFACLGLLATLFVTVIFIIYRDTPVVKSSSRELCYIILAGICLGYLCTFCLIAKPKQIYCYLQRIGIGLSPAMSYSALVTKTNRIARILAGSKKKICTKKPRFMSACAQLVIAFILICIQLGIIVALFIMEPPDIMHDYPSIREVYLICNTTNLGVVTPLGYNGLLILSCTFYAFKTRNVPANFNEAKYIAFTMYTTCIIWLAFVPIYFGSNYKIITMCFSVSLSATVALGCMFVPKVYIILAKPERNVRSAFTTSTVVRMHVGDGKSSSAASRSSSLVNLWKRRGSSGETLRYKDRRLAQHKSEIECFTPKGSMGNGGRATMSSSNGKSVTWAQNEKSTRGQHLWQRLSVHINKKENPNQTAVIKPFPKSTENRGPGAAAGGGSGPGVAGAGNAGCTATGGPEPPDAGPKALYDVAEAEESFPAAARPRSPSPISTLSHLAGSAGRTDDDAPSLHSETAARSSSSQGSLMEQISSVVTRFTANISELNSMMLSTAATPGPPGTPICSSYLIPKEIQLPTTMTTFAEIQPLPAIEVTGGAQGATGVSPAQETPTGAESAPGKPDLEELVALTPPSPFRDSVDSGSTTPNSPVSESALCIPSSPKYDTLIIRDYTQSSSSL
T1 sequence (P31424 21-1203): as above

Structure (SMILES) | IC50 (mGluR5) [nM] | Ki (rat mGluR5 receptor; rat mGluR5) [nM] | Ki (rat mGluR5 receptor; rat mGluR5 membranes) [nM]
COc1ccc(C(=O)N2CCN(c3ccc(C(F)(F)F)cn3)CC2)cc1C#Cc1ccccn1 [Compound 183, 1-[4-methoxy-3-(pyridin-2-ylethynyl)benzoyl]-4-[5-(trifluoromethyl)pyridin-2-yl]piperazine] | 66 | 41 | –
COc1ccc(C(=O)N2CCN(c3cccc(C(F)(F)F)c3)CC2)cc1C#Cc1ccccn1 [Compound 187, 1-[4-methoxy-3-(pyridin-2-ylethynyl)benzoyl]-4-[3-(trifluoromethyl)phenyl]piperazine] | 834 | 5 | –
COc1ccc(C(=O)N2CCN(c3cccc(Cl)c3)CC2)cc1C#Cc1ccccn1 [Compound 189, 1-(3-chlorophenyl)-4-[4-methoxy-3-(pyridin-2-ylethynyl)benzoyl]piperazine] | 148 | 4 | –
COc1ccc(C(=O)N2CCN(c3ncc(C(F)(F)F)cc3Cl)CC2)cc1C#Cc1ccccn1 [Compound 190, 1-[3-chloro-5-(trifluoromethyl)pyridin-2-yl]-4-[4-methoxy-3-(pyridin-2-ylethynyl)benzoyl]piperazine] | 408 | 413 | –
COc1ccc(C(=O)N2CCN(c3cc(C)ccn3)CC2)cc1C#Cc1ccccn1 [Compound 191, 1-[4-methoxy-3-(pyridin-2-ylethynyl)benzoyl]-4-(4-methylpyridin-2-yl)piperazine] | 31 | 19 | –
COc1ccc(C(=O)N2CCN(c3nc(C)cc(C)n3)CC2)cc1C#Cc1ccccn1 [Compound 192, 2-{4-[4-methoxy-3-(pyridin-2-ylethynyl)benzoyl]piperazin-1-yl}-4,6-dimethylpyrimidine] | 109 | 45 | –
COc1ccc(C(=O)N2CCN(c3nccnc3C#N)CC2)cc1C#Cc1ccccn1 [Compound 193, 3-{4-[4-methoxy-3-(pyridin-2-ylethynyl)benzoyl]piperazin-1-yl}pyrazine-2-carbonitrile] | 46 | 34 | –
COc1ccc(C(=O)N2CCN(c3nccc(C(F)(F)F)n3)CC2)cc1C#Cc1ccccn1 [Compound 194, 2-{4-[4-methoxy-3-(pyridin-2-ylethynyl)benzoyl]piperazin-1-yl}-4-(trifluoromethyl)pyrimidine] | 78 | 4 | –
COc1ccc(C(=O)N2CCN(c3cccc(C)n3)CC2)cc1C#Cc1ccccn1 [Compound 198, 1-[4-methoxy-3-(pyridin-2-ylethynyl)benzoyl]-4-(6-methylpyridin-2-yl)piperazine] | 34 | – | –
O=C(c1ccc(Cl)c(C#Cc2ccccn2)c1)N1CCN(c2cccc(C(F)(F)F)c2)CC1 [Compound 392, 1-[4-chloro-3-(pyridin-2-ylethynyl)benzoyl]-4-[3-(trifluoromethyl)phenyl]piperazine] | – | – | 120

Continued, values first:

IC50 (mGluR5) [nM] | Ki (rat mGluR5 receptor; rat mGluR5) [nM] | Ki (rat mGluR5 receptor; rat mGluR5 membranes) [nM] | Structure (SMILES)
117 | 78 | – | COc1ccc(C(=O)N2CCN(c3ncccc3C(F)(F)F)CC2)cc1C#Cc1ccccn1 [Compound 184, 1-[4-methoxy-3-(pyridin-2-ylethynyl)benzoyl]-4-[3-(trifluoromethyl)pyridin-2-yl]piperazine]
43 | 47 | – | COc1ccc(C(=O)N2CCN(c3ncc(Cl)cc3Cl)CC2)cc1C#Cc1ccccn1 [Compound 185, 1-(3,5-dichloropyridin-2-yl)-4-[4-methoxy-3-(pyridin-2-ylethynyl)benzoyl]piperazine]
37 | 19 | – | COc1ccc(C(=O)N2CCN(c3ncccc3Cl)CC2)cc1C#Cc1ccccn1 [Compound 186, 1-(3-chloropyridin-2-yl)-4-[4-methoxy-3-(pyridin-2-ylethynyl)benzoyl]piperazine]
86 | 7 | – | COc1ccc(C(=O)N2CCN(c3ccc(Cl)cn3)CC2)cc1C#Cc1ccccn1 [Compound 188, 1-(5-chloropyridin-2-yl)-4-[4-methoxy-3-(pyridin-2-ylethynyl)benzoyl]piperazine]
72 | – | – | COc1ccc(C(=O)N2CCN(c3ncccn3)CC2)cc1C#Cc1ccccn1 [Compound 353, 2-{4-[4-methoxy-3-(pyridin-2-ylethynyl)benzoyl]piperazin-1-yl}pyrimidine]
